According to publication PMC8541633, “A Novel Statin Compound from Monacolin J Produced Using CYP102A1-Catalyzed Regioselective C-Hydroxylation” (Pharmaceuticals, 2021):

Experiments:
[1] = target: T1, HMG-CoA reductase (Homo sapiens, UniProt P04035); test: HMG-CoA reductase assay kit (Sigma-Aldrich), spectrophotometry at […] nm; format: biochemical
T1 construct: gene HMGCR
T1 sequence (P04035 1-888): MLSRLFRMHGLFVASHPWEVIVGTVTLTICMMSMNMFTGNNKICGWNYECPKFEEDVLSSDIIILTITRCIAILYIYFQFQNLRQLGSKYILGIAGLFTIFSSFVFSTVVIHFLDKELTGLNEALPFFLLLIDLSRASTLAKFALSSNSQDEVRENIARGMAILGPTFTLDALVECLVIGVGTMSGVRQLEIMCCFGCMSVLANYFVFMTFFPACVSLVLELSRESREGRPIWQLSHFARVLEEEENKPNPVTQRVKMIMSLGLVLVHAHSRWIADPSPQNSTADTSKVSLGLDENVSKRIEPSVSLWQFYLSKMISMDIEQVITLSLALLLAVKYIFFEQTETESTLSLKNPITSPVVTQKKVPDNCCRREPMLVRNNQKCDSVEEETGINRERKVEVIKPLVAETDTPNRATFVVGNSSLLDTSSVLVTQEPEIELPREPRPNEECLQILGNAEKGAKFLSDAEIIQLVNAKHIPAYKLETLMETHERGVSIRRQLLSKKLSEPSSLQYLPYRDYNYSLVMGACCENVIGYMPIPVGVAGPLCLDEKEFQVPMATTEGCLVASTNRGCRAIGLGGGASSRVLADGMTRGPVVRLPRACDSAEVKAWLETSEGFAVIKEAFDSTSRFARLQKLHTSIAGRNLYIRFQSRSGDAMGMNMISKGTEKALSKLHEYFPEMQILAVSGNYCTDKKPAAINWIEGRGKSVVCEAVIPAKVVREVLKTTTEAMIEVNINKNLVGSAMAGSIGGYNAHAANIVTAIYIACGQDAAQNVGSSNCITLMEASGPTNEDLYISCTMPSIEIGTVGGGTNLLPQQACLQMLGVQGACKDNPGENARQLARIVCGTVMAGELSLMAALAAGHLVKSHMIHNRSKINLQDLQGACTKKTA

[2] = target: T2, CYP3A4 (Homo sapiens, UniProt P08684); test: hydroxylation by recombinant CYP3A4 membranes, HPLC and LC-MS (turnover rate); format: biochemical
T2 construct: recombinant, E. coli membrane fractions; with rat NADPH-P450 reductase (CPR)
T2 sequence (P08684 2-503): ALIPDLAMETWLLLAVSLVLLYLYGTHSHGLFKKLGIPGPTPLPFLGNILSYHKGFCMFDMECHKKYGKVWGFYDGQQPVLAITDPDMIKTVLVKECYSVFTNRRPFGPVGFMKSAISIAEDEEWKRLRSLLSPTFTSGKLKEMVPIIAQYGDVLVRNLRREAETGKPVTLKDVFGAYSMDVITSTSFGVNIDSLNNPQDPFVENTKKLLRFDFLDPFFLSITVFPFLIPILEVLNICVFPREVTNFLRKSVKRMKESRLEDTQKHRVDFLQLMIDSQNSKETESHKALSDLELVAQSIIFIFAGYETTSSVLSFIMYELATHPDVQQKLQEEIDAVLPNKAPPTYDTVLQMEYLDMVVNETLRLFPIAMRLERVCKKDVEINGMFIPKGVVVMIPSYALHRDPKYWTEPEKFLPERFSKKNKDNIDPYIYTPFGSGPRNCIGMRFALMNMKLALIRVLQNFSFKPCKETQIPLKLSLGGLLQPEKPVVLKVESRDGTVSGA
T2 sequence (P00388 2-678, further chain): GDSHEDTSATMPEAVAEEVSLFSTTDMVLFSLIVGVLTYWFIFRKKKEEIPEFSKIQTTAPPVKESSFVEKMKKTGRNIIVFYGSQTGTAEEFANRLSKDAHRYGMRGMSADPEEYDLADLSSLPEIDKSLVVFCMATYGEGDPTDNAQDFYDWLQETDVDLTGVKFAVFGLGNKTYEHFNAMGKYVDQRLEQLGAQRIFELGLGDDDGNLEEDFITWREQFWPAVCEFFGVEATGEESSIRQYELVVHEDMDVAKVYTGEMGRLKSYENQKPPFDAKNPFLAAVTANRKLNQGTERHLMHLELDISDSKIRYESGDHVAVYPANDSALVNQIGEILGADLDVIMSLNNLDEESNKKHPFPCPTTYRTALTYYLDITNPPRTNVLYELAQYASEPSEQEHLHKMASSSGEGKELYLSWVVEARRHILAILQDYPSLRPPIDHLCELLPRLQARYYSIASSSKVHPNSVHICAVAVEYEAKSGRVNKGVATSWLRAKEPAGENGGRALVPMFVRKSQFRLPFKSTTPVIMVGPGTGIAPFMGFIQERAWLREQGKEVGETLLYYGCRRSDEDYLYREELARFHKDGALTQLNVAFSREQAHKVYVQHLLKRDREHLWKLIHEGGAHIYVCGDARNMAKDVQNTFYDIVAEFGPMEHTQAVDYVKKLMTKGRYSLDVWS

IC50 [1] | SMILES | hydroxylation by recombinant CYP3A4 membranes, HPLC and LC-MS (turnover rate) [2]
285 µM | C[C@H]1C=CC2=C[C@H](CO)C[C@H](O)[C@@H]2[C@H]1CC[C@@H]1C[C@@H](O)CC(=O)O1 [6′a-hydroxymethyl monacolin J] | –
– | C[C@H]1C=C2C=C[C@H](C)[C@H](CC[C@@H]3C[C@@H](O)CC(=O)O3)[C@H]2[C@@H](O)C1 [monacolin J] | 0.040 nmol product min^−1 nmol P450^−1
